{"source": "patent US20100120690A1", "about": "“Polypeptides Having Antimicrobial Activity and Polynucleotides Encoding Same” (Novozymes Adenium Biotech A/S, priority 2005, published 2010)", "data": [{"tested_on": "Staphylococcus carnosus", "assay": "TAPS (Trans Acting Peptide System) assay, radial diffusion read-out", "format": "cell-based", "set-up": "key: classified as 4>3>2>1; whereas 4 is better than 1; classified as 4>3>2>1; classified as 4>3>2>1; wildtype activity corresponds to 1", "settings": "peptide expressed in E. coli", "description": "A range of antimicrobial polypeptides, which are variants of SEQ ID NO: 1, were tested in the TAPS assay. TAPS may be used to identify new or improved genes encoding peptides that can kill or inhibit the growth of target cells (see PCT application WO 2004/033715). The TAPS assay, an acronym for Trans Acting Peptide System, is based on having a sensitive host producing a peptide followed by screening for its activity in trans against an indicator strain. The advantage of this system is based on that the antimicrobial peptide is expressed in the Gram-negative bacterium E. coli and its antimicrobial activity can be monitored on different microbes including Gram-negatives, positives or fungi. Additionally, TAPS offers the possibility to produce correctly folded AMPs containing disulfide bonds in the host cells, thereby retaining their antimicrobial activities.\nThe TAPS approach requires first, that expression of the peptide is under control of an inducible promoter with tight regulation, because the host cells are sensitive to the peptide when producing it. Secondly, the produced peptide has to be released to the media so that it can interact with the target organism.\nThe TAPS screening can be carried out either in solid or liquid media. On solid media, a plasmid library is initially introduced into E. coli host cells. […] In the next step, the filter containing the colonies is transferred to LB growth medium containing inducer (0.1% arabinose) to permit peptide synthesis. Subsequently, the target strain, for example S. carnosus, is overlaid onto the plate and allowed to grow for 12-16 hours at 37° C. Finally, visual inspection of the host cells capable of reducing the proliferation of the target cells is performed and the nucleotide sequence encoding for the antimicrobial peptide is recovered from the host cells. DNA sequence analysis of the variants is obtained to elucidate the nature of the peptide.\nAs mentioned above, the TAPS screening can also be performed using liquid medium. This procedure requires the use of robotics to analyze large number of clones. In this system, the host E. coli origami cells are transformed with the plasmid library and plated out on LB medium+0.2% glucose+ampicillin (200 mg/L). Independent colonies are then inoculated into 96 or 384-well plates containing 200 micro-L of TB medium+ampicillin (200 mg/L) and cultured overnight at 37° C. These cultures are then replicated robotically and grown to exponential phase until inducer (0.1% arabinose) is added to trigger peptide synthesis. The next step consists in hydrolyzing the cells such that the peptide is released to the media by hot acid hydrolysis. This treatment consists on adding 1 M sodium Phosphate buffer pH 2.3 to obtain a final pH approximately of 2.3 and incubating the cultures overnight at 80° C. Next day, a 25 micro-L aliquot of the hydrolyzed cultures is used to perform an activity test against the desired target organisms. The activity test performed was a Radial Diffusion Assay (RDA) where an aliquot of the hydrolyzed cultures was added to the agarose media inoculated with the target strain, S. carnosus. […] Measurements of the diameter of the clearing zones were performed to quantify the potency of the antimicrobial activity of the peptides.\nThe antimicrobial activity (against Staphylococcus carnosus) of the tested plectasin variants, which was measured using the TAPS assay, is shown in table 3. The antimicrobial activity corresponds to the clearing zone size and has been classified as 4>3>2>1; whereas 4 is better than 1, and wildtype activity corresponds to 1.", "values": [{"sequence": "GFGCNGPWDEDDKQCHRHCKSIKGYKGGYCAKGGFVCKCY [M13K + N17R]", "Activity (antimicrobial activity, clearing zone size)": 3}, {"sequence": "GFGCNGPWDEDDMQCHHHCKSIKGYKGGYCAKGGFVCKCY [Mutation N17H]", "Activity (antimicrobial activity, clearing zone size)": 4}, {"sequence": "GFGCNGPWDEDDMQCHNHCKFIKGYKGGYCTKGGFVCKCY [S21F + A31T]", "Activity (antimicrobial activity, clearing zone size)": 2}, {"sequence": "GFGCNGPWDEDDMQCHNHCRSIKGYKGGYCAKGGFVCKCY [Mutation K20R]", "Activity (antimicrobial activity, clearing zone size)": 2}, {"sequence": "GFGCNGPWDEDDMQCHRHCKSIKGYKGGYCAKGGFVCKCYR [N17R + Y40YR]", "Activity (antimicrobial activity, clearing zone size)": 3}, {"sequence": "GFGCNGPWDEDDMRCHNHCKSIKGYKGGYCAKGGFICKCY [Q14R + V36I]", "Activity (antimicrobial activity, clearing zone size)": 4}, {"sequence": "GFGCNGPWDEDDMRCHNHCKSIKGYKGGYCAKGGFVCKCYR [Q14R + Y40YR]", "Activity (antimicrobial activity, clearing zone size)": 3}, {"sequence": "GFGCNGPWDEGDKQCHNHCKSIKGYRGGYCAKGGFVCKCY [D11G + M13K + K26R]", "Activity (antimicrobial activity, clearing zone size)": 3}, {"sequence": "GFGCNGPWDENDMQCHNHCKFIKGYKGGYCAKGGFVCKCY [D11N + S21F]", "Activity (antimicrobial activity, clearing zone size)": 4}, {"sequence": "GFGCYGPWDEDDMLCHNHCKSIKGYKGGYCAKGGFVCKCY [N5Y + Q14L]", "Activity (antimicrobial activity, clearing zone size)": 2}, {"sequence": "GFGCYGPWDEDDMQCHNHCKSIKGYKGGYCAKGGFVCKCY [Mutation N5Y]", "Activity (antimicrobial activity, clearing zone size)": 2}]}]}
